Columns and labels:
[1] = Maximal bubble pressure
[2] = xn = mol fraction of the nth substance listed; details: Maximal bubble pressure

CCCCCCCCCCCC [dodecane]
[1]
Details	surface tension liquid-gas [mN/m]
298.15 K	24.9
303.15 K	24.73

CCCCCCCCCC [decane] + CCO
[2]
Details	surface tension liquid-gas [mN/m]
303.15 K, x2 = 0.034	22.85
303.15 K, x2 = 0.101	22.6
303.15 K, x2 = 0.189	22.3
303.15 K, x2 = 0.29	22.1
303.15 K, x2 = 0.395	21.95
303.15 K, x2 = 0.492	21.85
303.15 K, x2 = 0.59	21.75
303.15 K, x2 = 0.696	21.65
303.15 K, x2 = 0.801	21.55
303.15 K, x2 = 0.907	21.45
303.15 K, x2 = 0.959	21.44
303.15 K, x2 = 0.982	21.43
308.15 K, x2 = 0.076	22.25
308.15 K, x2 = 0.173	22
308.15 K, x2 = 0.286	21.8
308.15 K, x2 = 0.373	21.68
308.15 K, x2 = 0.486	21.54
308.15 K, x2 = 0.593	21.46
308.15 K, x2 = 0.695	21.4
308.15 K, x2 = 0.8	21.29
308.15 K, x2 = 0.902	21.2
308.15 K, x2 = 0.954	21.17
318.15 K, x2 = 0.067	21.51
318.15 K, x2 = 0.16	21.25
318.15 K, x2 = 0.272	21
318.15 K, x2 = 0.366	20.83
318.15 K, x2 = 0.472	20.67
318.15 K, x2 = 0.585	20.54
318.15 K, x2 = 0.698	20.48
318.15 K, x2 = 0.803	20.37
318.15 K, x2 = 0.907	20.3
318.15 K, x2 = 0.958	20.36

CCCCCCCCCCCCCC [tetradecane] + CCO
[2], 313.15 K
Details	surface tension liquid-gas [mN/m]
x2 = 0.054	24.67
x2 = 0.072	24.67
x2 = 0.143	24.53
x2 = 0.191	24.25
x2 = 0.3	23.3
x2 = 0.412	22.52
x2 = 0.522	21.98
x2 = 0.62	21.76
x2 = 0.702	21.8
x2 = 0.8	21.66
x2 = 0.9	21.4
x2 = 0.945	21.17
x2 = 0.967	21.02
x2 = 0.988	20.82

CCCCCCCCCCCC [dodecane] + CCO
surface tension liquid-gas [mN/m], [2]
Details	298.15 K	303.15 K
x2 = 0.055	24.87	24.6
x2 = 0.09	–	24.5
x2 = 0.097	24.72	–
x2 = 0.174	–	24.05
x2 = 0.184	24.33	–
x2 = 0.247	–	23.7
x2 = 0.264	23.95	–
x2 = 0.332	–	23.35
x2 = 0.366	23.47	–
x2 = 0.443	–	22.92
x2 = 0.472	23.1	–
x2 = 0.571	–	22.65
x2 = 0.589	22.97	–
x2 = 0.684	–	22.52
x2 = 0.692	22.92	–
x2 = 0.795	–	22.39
x2 = 0.799	22.78	–
x2 = 0.903	–	22.16
x2 = 0.905	22.57	–
x2 = 0.951	22.38	21.98

CCCCCCCC [octane] + CCO
[2]
Details	surface tension liquid-gas [mN/m]
298.15 K, x2 = 0.099	20.91
298.15 K, x2 = 0.208	20.9
298.15 K, x2 = 0.294	20.79
298.15 K, x2 = 0.391	20.8
298.15 K, x2 = 0.512	20.75
298.15 K, x2 = 0.604	20.81
298.15 K, x2 = 0.707	20.9
298.15 K, x2 = 0.809	21.03
298.15 K, x2 = 0.871	21.19
298.15 K, x2 = 0.908	21.44
298.15 K, x2 = 0.955	21.69
308.15 K, x2 = 0.105	19.95
308.15 K, x2 = 0.162	19.83
308.15 K, x2 = 0.209	19.81
308.15 K, x2 = 0.31	19.73
308.15 K, x2 = 0.403	19.71
308.15 K, x2 = 0.5	19.72
308.15 K, x2 = 0.607	19.71
308.15 K, x2 = 0.707	19.86
308.15 K, x2 = 0.807	20.05
308.15 K, x2 = 0.904	20.39
308.15 K, x2 = 0.955	20.77
318.15 K, x2 = 0.103	18.96
318.15 K, x2 = 0.205	18.71
318.15 K, x2 = 0.345	18.64
318.15 K, x2 = 0.448	18.6
318.15 K, x2 = 0.598	18.63
318.15 K, x2 = 0.703	18.69
318.15 K, x2 = 0.809	18.83
318.15 K, x2 = 0.91	19.18
318.15 K, x2 = 0.958	19.85

CCCCCCCCCCCCCC [tetradecane]
Details	surface tension liquid-gas [mN/m]
[1], 313.15 K	24.8

CCCCCCCC [octane]
[1]
Details	surface tension liquid-gas [mN/m]
298.15 K	21.1
308.15 K	20.2
318.15 K	19.2

CCCCCCCCCC [decane]
[1]
Details	surface tension liquid-gas [mN/m]
303.15 K	22.9
308.15 K	22.5
318.15 K	21.66

CCO [ethanol]
[1]
Details	surface tension liquid-gas [mN/m]
298.15 K	22.1
303.15 K	21.7
308.15 K	21.3
313.15 K	20.71
318.15 K	20.4

From the NIST ThermoML archive (doi:10.1016/j.jct.2011.04.005)
